Results: PMC10687260, “1,3-Diphenylureido hydroxamate as a promising scaffold for generation of potent antimalarial histone deacetylase inhibitors” (Scientific Reports, 2023)

Tests used:
human HDAC6 = target: T1, human HDAC6 (Homo sapiens, UniProt Q9UBN7); test: In vitro HDAC enzymatic assay, HDAC6; format: biochemical; settings: for IC50: mean ± SD; for HDAC1/6 SI: ratio HsHDAC1 IC50/HsHDAC6 IC50
T1 construct: purchased ENZO Life Sciences AG (Lausen, CH)
T1 sequence (Q9UBN7 1-1215): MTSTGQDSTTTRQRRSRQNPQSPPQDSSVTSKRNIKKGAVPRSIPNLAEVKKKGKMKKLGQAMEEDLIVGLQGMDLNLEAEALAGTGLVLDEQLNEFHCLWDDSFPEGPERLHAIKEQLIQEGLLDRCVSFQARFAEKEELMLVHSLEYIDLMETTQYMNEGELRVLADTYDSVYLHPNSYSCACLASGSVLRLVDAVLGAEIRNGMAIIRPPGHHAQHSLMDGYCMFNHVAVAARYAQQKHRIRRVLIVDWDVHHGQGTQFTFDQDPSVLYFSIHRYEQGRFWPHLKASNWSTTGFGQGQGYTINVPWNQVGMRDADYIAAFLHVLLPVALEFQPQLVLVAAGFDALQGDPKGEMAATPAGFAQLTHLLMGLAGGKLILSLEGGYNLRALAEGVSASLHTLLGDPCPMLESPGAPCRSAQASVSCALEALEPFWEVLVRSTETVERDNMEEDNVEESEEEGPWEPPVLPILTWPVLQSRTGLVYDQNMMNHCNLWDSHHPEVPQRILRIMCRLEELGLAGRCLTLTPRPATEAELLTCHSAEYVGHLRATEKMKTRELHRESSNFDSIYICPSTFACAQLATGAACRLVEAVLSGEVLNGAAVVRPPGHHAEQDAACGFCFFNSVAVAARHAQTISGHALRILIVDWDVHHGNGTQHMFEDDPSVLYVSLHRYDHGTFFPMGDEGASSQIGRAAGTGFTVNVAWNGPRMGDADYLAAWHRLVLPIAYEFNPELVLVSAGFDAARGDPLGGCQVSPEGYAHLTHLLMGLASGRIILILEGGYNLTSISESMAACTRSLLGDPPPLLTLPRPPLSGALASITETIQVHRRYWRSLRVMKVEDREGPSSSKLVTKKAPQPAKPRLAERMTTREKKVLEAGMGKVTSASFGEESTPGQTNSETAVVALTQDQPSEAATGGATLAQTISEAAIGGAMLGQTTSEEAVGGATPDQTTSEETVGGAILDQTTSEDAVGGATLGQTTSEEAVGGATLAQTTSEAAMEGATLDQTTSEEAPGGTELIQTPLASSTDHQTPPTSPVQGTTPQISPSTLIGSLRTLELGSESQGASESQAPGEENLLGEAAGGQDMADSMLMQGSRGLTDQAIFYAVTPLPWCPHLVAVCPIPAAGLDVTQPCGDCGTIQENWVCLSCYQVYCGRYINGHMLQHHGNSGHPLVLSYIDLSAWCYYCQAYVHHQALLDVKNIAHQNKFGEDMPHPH
Experimental: (§1) In vitro HDAC enzymatic assays. Recombinant human HDAC1 and HDAC6 were purchased from ENZO Life Sciences AG (Lausen, CH) whereas HDAC8 was produced as described before. In vitro testing of the inhibitors in an enzymatic assay was carried out as described in previous publications[32],[33]. For HDAC1 a fluorogenic peptide derived from p53 (Ac-RHKK(Acetyl)-AMC) was used. For HDAC6, the substrate (Abz-SRGGK(thio-TFA)FFRR-NH2) was used as described before.

[1] = Stability in mouse hepatic microsomes; format: in vitro ADME; settings: for half-life at 1 µM: 1 mg/mL hepatic microsomes, 1 µM compound, read-out: Half-life t1/2 Mouse; for microsomal CLint at 1 µM: read-out: Intrinsic clearance Clint Mouse
Text: DMPK evaluation. […].

HepG2 cells = test: Cytotoxicity in human HepG2 cells (WST-1); format: cell-based; settings: Homo sapiens, HepG2; 48 h, WST-1; read-out: IC50 HepG2
Summary of the method: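 HepG2 cells (10^4/well, seeded overnight) were exposed to two-fold serial compound dilutions in fresh medium, then given WST-1 for 4 h. Formazan absorbance at 450 nm, with 630 nm background, was scaled 0–100% against untreated and DMSO controls.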

HDAC8 = target: T2, HDAC8 (Homo sapiens, UniProt Q9BY41); test: In vitro HDAC enzymatic assay, HDAC8; format: biochemical; settings: mean ± SD
T2 construct: made in house
T2 sequence (Q9BY41 1-377): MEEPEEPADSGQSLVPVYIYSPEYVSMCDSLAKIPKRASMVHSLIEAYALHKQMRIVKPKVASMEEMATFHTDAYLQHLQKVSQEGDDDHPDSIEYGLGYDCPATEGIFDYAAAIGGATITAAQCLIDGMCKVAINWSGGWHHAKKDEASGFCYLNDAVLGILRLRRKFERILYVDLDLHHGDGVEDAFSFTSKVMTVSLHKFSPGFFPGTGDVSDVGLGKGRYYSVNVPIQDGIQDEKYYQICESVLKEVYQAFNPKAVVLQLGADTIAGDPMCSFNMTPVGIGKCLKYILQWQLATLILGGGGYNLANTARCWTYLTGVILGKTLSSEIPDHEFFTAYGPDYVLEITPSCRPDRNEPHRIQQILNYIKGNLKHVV
Experimental: as §1

| Compound | IC50 (human HDAC6) [µM] | HDAC1/6 SI (human HDAC6) | half-life at 1 µM [1] [min] | microsomal CLint at 1 µM [1] [µL/min/mg] | IC50 (HepG2 cells) [µM] | IC50 (HDAC8) [µM] |
| --- | --- | --- | --- | --- | --- | --- |
| COc1ccc(NC(=O)Nc2ccc(/C=C/C(=O)NO)cc2)cc1 [Compound 6c, (E)-N-hydroxi-3-(4-(3-(4-methoxyphenyl)ureido)phenyl)acrylamide] | 0.0077 ± 0.0009 | 206 | 4.4 | 158 | 13.3 | 0.0637 ± 0.0042 |
| COc1ccc(NC(=O)Nc2ccc(CCC(=O)NO)cc2)cc1 [Compound 7c, N-hydroxy-3-(4-(3-(4-methoxyphenyl)ureido)phenyl)propanamide] | 0.151 ± 0.0111 | 23 | 4.1 | 169 | > 50 | 0.362 ± 0.0227 |
| O=C(Nc1ccccc1)Nc1ccc(C(=O)NO)cc1 [Compound 8a, N-hydroxy-4-(3-phenylureido)bezamide] | 0.0085 ± 0.0008 | 627 | 10.1 | 69 | 56 | 0.0935 ± 0.0053 |
| O=C(Nc1ccc(Cl)cc1)Nc1ccc(C(=O)NO)cc1 [Compound 8b, 4-(3-(4-chlorophenyl)ureido)-N-hydroxybenzamide] | 0.015 ± 0.0004 | 349 | 4 | 173 | > 200 | 0.0851 ± 0.0096 |
| COc1ccc(NC(=O)Nc2ccc(C(=O)NO)cc2)cc1 [Compound 8c, N-hydroxy-4-(3–4(-methoxyphenyl)ureido)benzamide] | 0.0159 ± 0.0004 |  | 2.5 | 281 | > 200 | 0.136 ± 0.0082 |
| O=C(Nc1ccc(C(=O)NO)cc1)Nc1ccc([N+](=O)[O-])cc1 [Compound 8d, N-hydroxy-4-(3-(4-nitrophenyl)ureido)benzamide] | 0.0134 ± 0.0005 | 279 | 13.8 | 50 | 54 | 0.0681 ± 0.0068 |
